According to ChEMBL document CHEMBL4627280, “Discovery of disubstituted xylylene derivatives as small molecule direct inhibitors of Keap1-Nrf2 protein-protein interaction” (Bioorg Med Chem, 2020):

Columns and labels:
[1] = Metabolic stability in human liver microsomes assessed as parent compound remaining at 0.1 mM measured after 90 mins by LC/MS analysis; type: ADME, Microsome; details: read-out: Stability
[2] = target: Kelch-like ECH-associated protein 1 (Homo sapiens, UniProt Q14145); assay: Inhibition of FITC-LDEETGEFL-NH2 binding to recombinant human Keap1 Kelch domain (321 to 609 residues) expressed in Escherichia Coli BL21(DE3)pLysS cells centrifuged for 2 mins followed by 30 mins incubation under shaking condition by fluorescence polarization assay
Sequence of Kelch-like ECH-associated protein 1 (Q14145 whole entry, the tested form may be a part): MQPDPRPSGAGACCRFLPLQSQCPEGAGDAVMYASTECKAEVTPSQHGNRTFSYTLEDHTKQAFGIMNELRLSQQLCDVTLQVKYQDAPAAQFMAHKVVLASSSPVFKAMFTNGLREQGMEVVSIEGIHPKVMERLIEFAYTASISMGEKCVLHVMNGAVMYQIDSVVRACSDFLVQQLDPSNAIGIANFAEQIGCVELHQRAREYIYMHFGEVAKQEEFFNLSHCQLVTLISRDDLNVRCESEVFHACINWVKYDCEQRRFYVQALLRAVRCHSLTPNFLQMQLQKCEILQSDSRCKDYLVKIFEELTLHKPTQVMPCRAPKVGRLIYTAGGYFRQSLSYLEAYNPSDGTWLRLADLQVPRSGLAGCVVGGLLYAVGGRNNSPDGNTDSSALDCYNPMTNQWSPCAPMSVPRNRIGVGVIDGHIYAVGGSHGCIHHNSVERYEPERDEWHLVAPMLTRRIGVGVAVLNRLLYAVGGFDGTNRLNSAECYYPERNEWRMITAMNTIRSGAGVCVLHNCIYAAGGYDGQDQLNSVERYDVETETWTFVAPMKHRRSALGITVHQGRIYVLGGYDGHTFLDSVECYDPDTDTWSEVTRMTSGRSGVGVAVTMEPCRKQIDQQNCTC

Question: Which remaining at 1.5 h, 100 µM [1] does the source give for `COc1ccc(S(=O)(=O)N(CC(=O)O)c2ccc(N(CC(=O)O)S(=O)(=O)c3ccc(OC)cc3)c3ccccc23)cc1` here?
Answer: 56.9%

Question: Which IC50 [2] does the source give for `COc1ccc(S(=O)(=O)N(CC(=O)O)Cc2ccccc2CN(CC(=O)O)S(=O)(=O)c2ccc(OC)cc2)cc1` here?
Answer: 2.3 µM

Question: And the remaining at 1.5 h, 100 µM [1]?
Answer: 97.7%

Question: With `COc1ccc(S(=O)(=O)N(Cc2ccccc2CN([C@@H](C)C(=O)O)S(=O)(=O)c2ccc(OC)cc2)[C@@H](C)C(=O)O)cc1` as the compound, how does the remaining at 1.5 h, 100 µM [1] read?
Answer: 98.2%
